Test results taken from patent US8268366B2, “Cosmetic composition containing salt-fermented extract of natural materials” (Amorepacific Corporation, priority 2008, dated 2012).

Legend:
[1] = system: procollagen; test: Test of the effect of promoting procollagen production in human fibroblasts; assay type: cell-based; conditions: human fibroblasts treated at 10^−4 mole for 24 hours; procollagen type-1 C-peptide EIA; untreated control group set as 100
Protocol: Procollagen is a collagen production-inducing substance necessary for collagen production and aging prevention, and if the degree of production of procollagen is high, the degree of production of collagen is also high, and thus the production of skin wrinkles can be prevented. Also, vitamin C is known as a component essential for the synthesis of collagen. […] The cell culture broths were then collected. After 24 hours, the amount of released procollagen in the medium was measured with a procollagen type-1 C-peptide EIA kit (MK101, Takara, Japan). Based on the measurement results, the production of procollagen was calculated according to the following Equation 2. Herein, the production of procollagen collected from the group not treated with the composition was used as a control group. […] [formula]

[2] = system: collagenase; test: Measurement of collagenase expression inhibitory activity in human fibroblasts; assay type: cell-based; conditions: human fibroblasts treated at 10^−4 mole for 24 hours; untreated control group set as 100
Protocol: The collagenase expression inhibitory activity of the extracts of natural materials, prepared in Comparative Examples 1 and 2, and the salt-fermented extracts of natural materials, prepared in Examples 1 to 7, were measured comparatively with those of tocopherol and EGCG. […] Tocopherol and EGCG, which are antioxidant substances, are known to prevent skin aging by regenerating the epidermal cells of the skin.
In the test, human fibroblasts were seeded into a 96-well microtiter plate containing DMEM (Dulbecco's Modified Eagle's Media) medium containing 2.5% fetal bovine serum to a density of 5,000 cells/well and were cultured to a confluence of about 90%. […]
The collected cell culture broths were measured for collagenase production using a commercially available collagenase measurement device (Amersham Phamasia, USA). […]
The absorbance of the 96-well plate having a yellow color was measured at 405 nm using an absorbance spectrometer, and the degree of synthesis of collagenase was calculated according to the following Equation 1. Herein, the absorbance of the cell culture broth collected from the group not treated with the composition was used as a control. That is, the expression of collagenase in the control group was set as 100, and the expression of collagenase in the group treated with the composition was calculated relative to the control group.

Molecule | Procollagen production (%) [1] | Collagenase expression (%) [2]
O=C1O[C@H]([C@@H](O)CO)C(O)=C1O [Vitamin C, vitamin C] | 120% | 
O=C(O[C@@H]1Cc2c(O)cc(O)cc2O[C@@H]1c1cc(O)c(O)c(O)c1)c1cc(O)c(O)c(O)c1 [EGCG] |  | 60%
tocopherol |  | 75%
